test: Plasma pharmacokinetics of the parent compound after a single oral dose of prodrug; type: in vivo; conditions: single oral dose 10 mg/kg, fasted male Sprague Dawley rats; plasma analyzed for the parent compound; study duration 8 h
Procedure, shortened: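 Three male Sprague Dawley rats, housed in metabolic cages and fasted about 15 hours, were weighed and received one oral gavage dose of 10 mg/kg as a solution in water or water/propylene glycol. Blood (approximately 500 μL) went into heparin tubes at set timepoints up to the study duration. Plasma was separated by centrifugation at 14,000 rpm for 3 min at 4° C, stored below −70° C, and assayed for the parent compound.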

| AUC0-last hour (area under the curve) | SMILES |
| --- | --- |
| B (B = 1,001-10,000 ng/mL) | C=Cc1cc(C(=O)Nc2ccc(C(=N)NC(=O)OC(COC)COC)cc2)c(-c2ccc(C(=O)NCC3CC3)nc2C(=O)OC(C)OC(=O)C(C)C)cc1OC (centres unmarked) [Compound 66c, 1-(isobutyryloxy)ethyl 6-((cyclopropylmethyl)carbamoyl)-3-(2-((4-(N-(((1,3-dimethoxypropan-2-yl)oxy)carbonyl)carbamimidoyl)phenyl)carbamoyl)-5-methoxy-4-vinylphenyl)picolinate] |
| B (B = 1,001-10,000 ng/mL) | C=Cc1cc(C(=O)Nc2ccc(C(=N)NC(=O)OC3COCOC3)cc2)c(-c2ccc(C(=O)NCC3CC3)nc2C(=O)OC(C)OC(=O)OC(C)C)cc1OC (centres unmarked) [Compound 68a, 1-((isopropoxycarbonyl)oxy)ethyl 3-(2-((4-(N-(((1,3-dioxan-5-yl)oxy)carbonyl)carbamimidoyl)phenyl)carbamoyl)-5-methoxy-4-vinylphenyl)-6-((cyclopropylmethyl)carbamoyl)picolinate] |
| A (A = 0-1,000 ng/mL) | C=Cc1cc(C(=O)Nc2ccc(C(=N)NC(=O)OCCC(=O)O)cc2)c(-c2ccc(C(=O)NCC3CC3)nc2C(=O)OC(C)OC(=O)OC(C)C)cc1OC (centres unmarked) [Compound 71a, 3-((((4-(2-(6-((cyclopropylmethyl)carbamoyl)-2-((1-((isopropoxycarbonyl)oxy)ethoxy)carbonyl)pyridin-3-yl)-4-methoxy-5-vinylbenzamido)phenyl)(imino)methyl)carbamoyl)oxy)propanoic acid] |
| B (B = 1,001-10,000 ng/mL) | C=Cc1cc(C(=O)Nc2ccc(C(=N)NC(=O)OCC3COC(C)(C)O3)cc2)c(-c2ccc(C(=O)NCC3CC3)nc2C(=O)OC(C)OC(=O)OC(C)C)cc1OC (centres unmarked) [Compound 77c, 1-((isopropoxycarbonyl)oxy)ethyl 6-((cyclopropylmethyl)carbamoyl)-3-(2-((4-(N-(((2,2-dimethyl-1,3-dioxolan-4-yl)methoxy)carbonyl)carbamimidoyl)phenyl)carbamoyl)-5-methoxy-4-vinylphenyl)picolinate] |
| C (C >10,000 ng/mL) | C=Cc1cc(C(=O)Nc2ccc(C(=N)NC(=O)OCCOCC)cc2)c(-c2ccc(C(=O)NCC3CC3)nc2C(=O)OC(C)OC(=O)C(C)C)cc1OC (centres unmarked) [Compound 80c, 1-(isobutyryloxy)ethyl 6-((cyclopropylmethyl)carbamoyl)-3-(2-((4-(N-((2-ethoxyethoxy)carbonyl)carbamimidoyl)phenyl)carbamoyl)-5-methoxy-4-vinylphenyl)picolinate] |
| A (A = 0-1,000 ng/mL) | C=Cc1cc(C(=O)Nc2ccc(C(=N)NC(=O)OCCCCCC)cc2)c(-c2ccc(C(=O)NCC3CC3)nc2C(=O)OC(C)OC(=O)NC(C)C)cc1OC (centres unmarked) [Compound 81d, 1-((isopropylcarbamoyl)oxy)ethyl 6-((cyclopropylmethyl)carbamoyl)-3-(2-((4-(N-((hexyloxy)carbonyl)carbamimidoyl)phenyl)carbamoyl)-5-methoxy-4-vinylphenyl)picolinate] |
| B (B = 1,001-10,000 ng/mL) | C=Cc1cc(C(=O)Nc2ccc(C(=N)NC(=O)OCCOCCC)cc2)c(-c2ccc(C(=O)NCC3CC3)nc2C(=O)OC(C)OC(=O)OC(C)C)cc1OC (centres unmarked) [Compound 83c, 1-((isopropoxycarbonyl)oxy)ethyl 6-((cyclopropylmethyl)carbamoyl)-3-(5-methoxy-2-((4-(N-((2-propoxyethoxy)carbonyl)carbamimidoyl)phenyl)carbamoyl)-4-vinylphenyl)picolinate] |
| A (A = 0-1,000 ng/mL) | C=Cc1cc(C(=O)Nc2ccc(C(=N)NC(=O)OCC(O)CO)cc2)c(-c2ccc(C(=O)NCC3CC3)nc2C(=O)OC(C)OC(=O)OC(C)C)cc1OC (centres unmarked) [Compound 84a, 1-((isopropoxycarbonyl)oxy)ethyl 6-((cyclopropylmethyl)carbamoyl)-3-(2-((4-(N-((2,3-dihydroxypropoxy)carbonyl)carbamimidoyl)phenyl)carbamoyl)-5-methoxy-4-vinylphenyl)picolinate] |
| A (A = 0-1,000 ng/mL) | C=Cc1cc(C(=O)Nc2ccc(C(=N)NC(=O)OCCO)cc2)c(-c2ccc(C(=O)NCC3CC3)nc2C(=O)OC(C)OC(=O)C(C)C)cc1OC (centres unmarked) [Compound 85d, 1-(isobutyryloxy)ethyl 6-((cyclopropylmethyl)carbamoyl)-3-(2-((4-(N-((2-hydroxyethoxy)carbonyl)carbamimidoyl)phenyl)carbamoyl)-5-methoxy-4-vinylphenyl)picolinate] |
| A (A = 0-1,000 ng/mL) | C=Cc1cc(C(=O)Nc2ccc(C(=N)NC(=O)OCCCCCC)cc2)c(-c2ccc(C(=O)NCC3CC3)nc2C(=O)OC(C)OC(=O)N(C)C)cc1OC (centres unmarked) [Compound 90d, 1-((dimethylcarbamoyl)oxy)ethyl 6-((cyclopropylmethyl)carbamoyl)-3-(2-((4-(N-((hexyloxy)carbonyl)carbamimidoyl)phenyl)carbamoyl)-5-methoxy-4-vinylphenyl)picolinate] |
| A (A = 0-1,000 ng/mL) | C=Cc1cc(C(=O)Nc2ccc(C(=N)NC(=O)OCCC[C@H](O)C(=O)O)cc2)c(-c2ccc(C(=O)NCC3CC3)nc2C(=O)OC(C)OC(=O)C(C)C)cc1OC (stereo partly drawn) [Compound 92a, (2S)-5-((((4-(2-(6-((cyclopropylmethyl)carbamoyl)-2-((1-(isobutyryloxy)ethoxy)carbonyl)pyridin-3-yl)-4-methoxy-5-vinylbenzamido)phenyl)(imino)methyl)carbamoyl)oxy)-2-hydroxypentanoic acid] |
| B (B = 1,001-10,000 ng/mL) | C=Cc1cc(C(=O)Nc2ccc(C(=N)NC(=O)OCCCCCO)cc2)c(-c2ccc(C(=O)NCC3CC3)nc2C(=O)OC(C)OC(=O)C(C)C)cc1OC (centres unmarked) [Compound 94e, 1-(isobutyryloxy)ethyl 6-((cyclopropylmethyl)carbamoyl)-3-(2-((4-(N-(((5-hydroxypentyl)oxy)carbonyl)carbamimidoyl)phenyl)carbamoyl)-5-methoxy-4-vinylphenyl)picolinate] |

Further lines, the molecule ahead of its results:

| SMILES | AUC0-last hour (area under the curve) |
| --- | --- |
| C=Cc1cc(C(=O)Nc2ccc(C(=N)NC(=O)OCCCCCC)cc2)c(-c2ccc(C(=O)NCC3CC3)nc2C(=O)OCOC(=O)[C@@H](N)Cc2ccccc2)cc1OC [Compound 69d, (S)-((2-amino-3-phenylpropanoyl)oxy)methyl 6-((cyclopropylmethyl)carbamoyl)-3-(2-((4-(N-((hexyloxy)carbonyl)carbamimidoyl)phenyl)carbamoyl)-5-methoxy-4-vinylphenyl)picolinate] | A (A = 0-1,000 ng/mL) |
| C=Cc1cc(C(=O)Nc2ccc(C(=N)NC(=O)OCCCCCC)cc2)c(-c2ccc(C(=O)NCC3CC3)nc2C(=O)OC(C)OC(=O)OC2CCCCC2)cc1OC (centres unmarked) [Compound 70d, 1-(((cyclohexyloxy)carbonyl)oxy)ethyl 6-((cyclopropylmethyl)carbamoyl)-3-(2-((4-(N-((hexyloxy)carbonyl)carbamimidoyl)phenyl)carbamoyl)-5-methoxy-4-vinylphenyl)picolinate] | B (B = 1,001-10,000 ng/mL) |
| C=Cc1cc(C(=O)Nc2ccc(C(=N)NC(=O)OCCCCCC)cc2)c(-c2ccc(C(=O)NCC3CC3)nc2C(=O)OCOC(=O)OC(C)C)cc1OC [Compound 72a, ((isopropoxycarbonyl)oxy)methyl 6-((cyclopropylmethyl)carbamoyl)-3-(2-((4-(N-((hexyloxy)carbonyl)carbamimidoyl)phenyl)carbamoyl)-5-methoxy-4-vinylphenyl)picolinate] | B (B = 1,001-10,000 ng/mL) |
| C=Cc1cc(C(=O)Nc2ccc(C(=N)NC(=O)OC[C@@H]3C[C@@H](O)CC(=O)O3)cc2)c(-c2ccc(C(=O)NCC3CC3)nc2C(=O)OC(C)OC(=O)C(C)C)cc1OC (stereo partly drawn) [Compound 73d, 1-(isobutyryloxy)ethyl 6-((cyclopropylmethyl)carbamoyl)-3-(2-((4-(N-((((2S,4R)-4-hydroxy-6-oxotetrahydro-2H-pyran-2-yl)methoxy)carbonyl)carbamimidoyl)phenyl)carbamoyl)-5-methoxy-4-vinylphenyl)picolinate] | A (A = 0-1,000 ng/mL) |
| C=Cc1cc(C(=O)Nc2ccc(C(=N)NC(=O)OCOC(=O)[C@@H](N)C(C)C)cc2)c(-c2ccc(C(=O)NCC3CC3)nc2C(=O)OCOC(=O)[C@@H](N)C(C)C)cc1OC [Compound 74e, (((S)-2-amino-3-methylbutanoyl)oxy)methyl 3-(2-((4-(N—(((((S)-2-amino-3-methylbutanoyl)oxy)methoxy)carbonyl)carbamimidoyl)phenyl)carbamoyl)-5-methoxy-4-vinylphenyl)-6-((cyclopropylmethyl)carbamoyl)picolinate] | B (B = 1,001-10,000 ng/mL) |
| C=Cc1cc(C(=O)Nc2ccc(C(=N)NC(=O)OCCN3CCOCC3)cc2)c(-c2ccc(C(=O)NCC3CC3)nc2C(=O)OC(C)OC(=O)C(C)C)cc1OC (centres unmarked) [Compound 75c, 1-(isobutyryloxy)ethyl 6-((cyclopropylmethyl)carbamoyl)-3-(5-methoxy-2-((4-(N-((2-morpholinoethoxy)carbonyl)carbamimidoyl)phenyl)carbamoyl)-4-vinylphenyl)picolinate] | B (B = 1,001-10,000 ng/mL) |
| C=Cc1cc(C(=O)Nc2ccc(C(=N)NC(=O)OCCCCCC)cc2)c(-c2ccc(C(=O)NCC3CC3)nc2C(=O)OC(C)OC(=O)OCC2COC(C)(C)O2)cc1OC (centres unmarked) [Compound 87a, 1-((((2,2-dimethyl-1,3-dioxolan-4-yl)methoxy)carbonyl)oxy)ethyl 6-((cyclopropylmethyl)carbamoyl)-3-(2-((4-(N-((hexyloxy)carbonyl)carbamimidoyl)phenyl)carbamoyl)-5-methoxy-4-vinylphenyl)picolinate] | B (B = 1,001-10,000 ng/mL) |
| C=Cc1cc(C(=O)Nc2ccc(C(=N)NC(=O)OCCCCCC)cc2)c(-c2ccc(C(=O)NCC3CC3)nc2C(=O)OC(C)OC(=O)N[C@H](C(=O)OCC)[C@@H](C)CC)cc1OC (stereo partly drawn) [Compound 91d, 1-((((2S,3S)-1-ethoxy-3-methyl-1-oxopentan-2-yl)carbamoyl)oxy)ethyl 6-((cyclopropylmethyl)carbamoyl)-3-(2-((4-(N-((hexyloxy)carbonyl)carbamimidoyl)phenyl)carbamoyl)-5-methoxy-4-vinylphenyl)picolinate] | A (A = 0-1,000 ng/mL) |
